Laboratory results published in patent US20240366553A1, “ASPARTIC ACID COPPER COMPLEX, AND USE THEREOF” (GUANGZHOU INSIGHTER BIOTECHNOLOGY CO., LTD., priority 2021, published 2024).
Read-outs that look alike come from different tables or passages of the source.

Columns and labels:
[1] = tested on: Lingnan yellow-feathered, fast-growing, and large-sized broilers; settings: for Average feed consumption / Average weight gain / Feed-to-meat ratio / Survival rate (%) / Relative weight gain rate (%): broilers aged 1 to 21 days; for Relative weight gain rate (%): relative to control group; for Physical characteristics of the experimental chickens: experimental groups of compounds 1-7
Description: (§1) Experimental animals: 900 one-day-old Lingnan yellow-feathered, fast-growing, and large-sized broilers; 150 weaned piglets;
(§2) Feeds: basal feed for chickens and basal feed for pigs that contain no antimicrobial drugs, copper sources and growth promoters;
(§3) Experimental samples: compound 1, compound 2, compound 3, compound 4, compound 5, compound 6, compound 7,
900 one-day-old Lingnan yellow-feathered, fast-growing, and large-sized broilers were randomly divided into 18 groups (50 broilers/group). […] The broilers had free access to food. The weight gain and feed conversion of the experimental chickens (aged from 1 to 21 days) in each experimental group were recorded.

[2] = tested on: weaned piglets; settings: for Average weight gain / Feed-to-meat ratio / Survival rate (%) / Total feed consumption / Total weight gain / Relative weight gain rate (%): weaned piglets, 30 days; for Total feed consumption / Total weight gain: 10 pigs; for Relative weight gain rate (%): control group = 100
Description: as §1, §2, §3
150 weaned piglets were grouped according to Table 2 (10 piglets/group). […] The piglets had free access to food. The weight gain and feed conversion of the experimental pigs in each experimental group were recorded within 30 days after […] weaning.

[3] = tested on: black carp (subyearlings); experiment: Use of aspartic acid copper complex in aquaculture feeds (black carp breeding experiment); format: in vivo; settings: 30 mg/kg in feed (as copper ions), 8 weeks
Description: Experimental fishes: The experimental fishes used were black carp (subyearlings), which were provided by the Dafeng fish nursery (Huizhou city, Guangdong province). Healthy and active fingerling black carps (uniform in size) were fed for 4 weeks in a big net cage (4×2×1.5 m^3) and then the formal breeding experiment was carried out. The experimental systems were small floating net cages (1.1×1.1×1.1 m^3 in size). Each small net cage was provided with an air-filling head, which allowed for continuous inflation of the cages for 24 h a day. The small net cages and the acclimatization net cage were all placed in a 3500 m^2 pond in the experimental field. […] During the trial, 480 black carps (fasted for 1 d) were randomly divided into 10 groups, with 4 replicates for each group and 12 fishes in each replicate. After weighing as a whole, the black carps were randomly placed into […] and fed with different experimental feeds.
Experimental feeds: The experimental feeds were formulated following the formula in Table 5. According to Table 6, different copper element supplements (calculated based on the copper ions) were added to the feeds in different experimental groups, respectively. The feed raw materials were subjected to ultrafine grinding and then granulated into floating expanded feeds (3 mm) using an expansion machine from Jiangsu Muyang Corporation. The demolding temperature was 130° C. 3% soybean oil was externally sprayed using an oil spraying device. The finished product was sealed and stored in a cool place for later use.
Experimental management: During the trial, the carps were manually fed in a restricted dose. The feeding dose was adjusted once a week, and the doses for all groups (based on the initial body weight) were completely consistent. The carps were fed twice a day (at 7:30 and 15:00). The experiment lasted for 8 weeks. During the trial, the water quality was regularly monitored, and throughout the breeding, the water temperature was kept at 26.88±3.08° C., DO>5.0 mg O L^−1, pH 7.8, ammonia nitrogen<0.50 mg NL^−1, and nitrite-nitrogen<0.05 mg N L^−1.
Parametric statistics: During the trial, the carps in each net cage were weighed as a whole one day after discontinuation of feeding, and the average weight gain (g) and feed-to-meat ratio were calculated. The calculation formulas are as follows:
Average weight gain (g)=Average final weight−Average initial weight; Feed-to-meat ratio=Food intake/Weight gain of fishes;

[4] = 50 mg/kg in feed (as copper ion)
[5] = 5 mg/kg in feed (as copper ion)
[6] = 100 mg/kg in feed (as copper ion)
[7] = 200 mg/kg in feed (as copper ion)
[8] = 300 mg/kg in feed (as copper ion)
[9] = group 1-30: 30 mg/kg in feed (as copper ion)
[10] = 8 mg/kg in feed (as copper ion)
[11] = group 1-200: 200 mg/kg in feed (as copper ion)
[12] = L-aspartic acid 105 mg/kg in feed, no copper source
[13] = L-aspartic acid group (105 mg/kg), versus control
[14] = L-aspartic acid 104 mg/kg in feed, no copper source

## NC(CC(=O)[O-])C(=O)[O-].O.O.[Cu+2] (racemic) [Compound 5, [(Cu(II))(DL-Asp)(H2O)2]]
[1]; [4]
  Average feed consumption: 917 g
  Average weight gain: 503 g
  Feed-to-meat ratio: 1.824
  Survival rate (%): 100%
  Relative weight gain rate (%): 106.1%
[1]
  Physical characteristics of the experimental chickens: normal physical characteristics
[2]; [4]
  Average weight gain: 11.83 kg
  Feed-to-meat ratio: 2.184
  Survival rate (%): 100%
  Total feed consumption: 258.35 kg
  Total weight gain: 118.3 kg
  Relative weight gain rate (%): 108.5%
[3]
  Average weight gain: 349 g
  Feed-to-meat ratio: 1.433

## N[C@@H](CC(=O)[O-])C(=O)[O-].[Cu+2] (racemic) [Compound 6, [(Cu(II))(DL-Asp)]]
[1]; [4]
  Average feed consumption: 912 g
  Average weight gain: 510 g
  Feed-to-meat ratio: 1.789
  Survival rate (%): 100%
  Relative weight gain rate (%): 107.6%
[1]
  Physical characteristics of the experimental chickens: normal physical characteristics
[2]; [4]
  Average weight gain: 12.08 kg
  Feed-to-meat ratio: 2.173
  Survival rate (%): 100%
  Total feed consumption: 262.46 kg
  Total weight gain: 120.8 kg
  Relative weight gain rate (%): 110.8%
[3]
  Average weight gain: 353 g
  Feed-to-meat ratio: 1.416

## NC(CC(=O)[O-])C(=O)[O-].O.O.[Cu+2] (racemic) [Compound 7, [(Cu(II))(DL-Asp)(H2O)2]·(H2O)0.16]
[1]; [4]
  Average feed consumption: 921 g
  Average weight gain: 515 g
  Feed-to-meat ratio: 1.789
  Survival rate (%): 100%
  Relative weight gain rate (%): 108.6%
[1]
  Physical characteristics of the experimental chickens: normal physical characteristics
[2]; [4]
  Average weight gain: 12.16 kg
  Feed-to-meat ratio: 2.198
  Survival rate (%): 100%
  Total feed consumption: 267.33 kg
  Total weight gain: 121.6 kg
  Relative weight gain rate (%): 111.6%
[3]
  Average weight gain: 350 g
  Feed-to-meat ratio: 1.429

## N[C@@H](CC(=O)[O-])C(=O)[O-].O.O.[Cu+2] [Compound 1, [(Cu(II))(L-Asp)(H2O)2]]
[1]; [5]
  Average feed consumption: 916 g
  Average weight gain: 497 g
  Feed-to-meat ratio: 1.843
  Survival rate (%): 100%
  Relative weight gain rate (%): 104.9%
[1]; [4]
  Average feed consumption: 923 g
  Average weight gain: 518 g
  Feed-to-meat ratio: 1.782
  Survival rate (%): 100%
  Relative weight gain rate (%): 109.3%
[1]; [6]
  Average feed consumption: 970 g
  Average weight gain: 546 g
  Feed-to-meat ratio: 1.777
  Survival rate (%): 100%
  Relative weight gain rate (%): 115.2%
[1]; [7]
  Average feed consumption: 1004 g
  Average weight gain: 567 g
  Feed-to-meat ratio: 1.771
  Survival rate (%): 100%
  Relative weight gain rate (%): 119.6%
[1]; [8]
  Average feed consumption: 926 g
  Average weight gain: 526 g
  Feed-to-meat ratio: 1.760
  Survival rate (%): 100%
  Relative weight gain rate (%): 111.0%
[1]; addition amount of 50-100 mg/kg
  Dose effect in the experimental results (broilers): exhibited a dose effect
[1]
  Physical characteristics of the experimental chickens: normal physical characteristics
[1]; [9]
  Average feed consumption: 919 g
  Average weight gain: 511 g
  Feed-to-meat ratio: 1.798
  Survival rate (%): 100%
  Relative weight gain rate (%): 107.8%
[2]; [10]
  Average weight gain: 11.26 kg
  Feed-to-meat ratio: 2.268
  Survival rate (%): 100%
  Total feed consumption: 255.34 kg
  Total weight gain: 112.6 kg
  Relative weight gain rate (%): 103.30%
[2]; [4]
  Average weight gain: 12.12 kg
  Feed-to-meat ratio: 2.121
  Survival rate (%): 100%
  Total feed consumption: 257.08 kg
  Total weight gain: 121.2 kg
  Relative weight gain rate (%): 111.19%
[2]; [6]
  Average weight gain: 12.21 kg
  Feed-to-meat ratio: 2.112
  Survival rate (%): 100%
  Total feed consumption: 257.86 kg
  Total weight gain: 122.1 kg
  Relative weight gain rate (%): 112.02%
[2]; 8-200 mg/kg groups
  Dose effect on improving the production performance of the experimental pigs: exhibited a dose effect
[2]; dose of 50 mg/kg, comparator copper sulfate 250 mg/kg
  Growth-promoting effect and feed conversion rate versus high-level copper sulfate group: close to those achieved in the high-level copper sulfate group
[2]; [9]
  Average weight gain: 11.66 kg
  Feed-to-meat ratio: 2.205
  Survival rate (%): 100%
  Total feed consumption: 257.09 kg
  Total weight gain: 116.6 kg
  Relative weight gain rate (%): 106.97%
[2]; [11]
  Average weight gain: 12.34 kg
  Feed-to-meat ratio: 2.093
  Survival rate (%): 100%
  Total feed consumption: 258.28 kg
  Total weight gain: 123.4 kg
  Relative weight gain rate (%): 113.21%
[2]; used at the same doses (50 mg/kg)
  Improvement in the feed conversion of the experimental pigs compared with compound 4: about 2 fold
[3]
  Average weight gain: 357 g
  Feed-to-meat ratio: 1.401

## NC(CC(=O)[CH2][Cu][O]C(=O)CC(N)C(=O)O)C(=O)O (centres unmarked) [Compound 8, reference compound]
[1]; [4]
  Survival rate (%): 100%
[2]; [4]
  Survival rate (%): 100%
[2]; 50 mg/kg, versus control group
  Production performance of the experimental pigs: substantially close to that achieved in the control group

## N[C@@H](CC(=O)O)C(=O)O [L-aspartic acid, reference compound]
[1]; [12]
  Average feed consumption: 899 g
  Average weight gain: 480 g
  Feed-to-meat ratio: 1.873
  Survival rate (%): 100%
  Relative weight gain rate (%): 101.3%
[1]; [13]
  Feed conversion decreased by: 0.32%
  Relative weight gain rate increased by: 4.2%
[2]; [14]
  Average weight gain: 11.04 kg
  Feed-to-meat ratio: 2.285
  Survival rate (%): 100%
  Total feed consumption: 252.27 kg
  Total weight gain: 110.4 kg
  Relative weight gain rate (%): 101.28%
